# From patent publication US8088819B2, “Derivatives of substituted 3-phenyl-1-(phenylthienyl)propan-1-ones and of 3-phenyl-1-(phenylfuranyl) propan-1-ones, preparation and use” (priority 2006, dated 2012)
# What was measured:
# [1] = tested on: target genes of the PPARs; test: Expression of PPARδ target genes in skeletal muscle of the C57Bl6 mouse (compounds 4 and 7), quantitative RT-PCR; type: in vivo; details: C57Bl6 mice; 50 mpk; 14 days
# Source text: The PPARδ agonistic properties of the molecules according to the invention previously measured in vitro should be reflected at the level of the skeletal muscle in overexpression of the target genes directly under the control of the PPARδ receptor: the genes that were investigated in this experiment are the genes coding for PDK4 (enzyme of carbohydrate metabolism), CPT1b (enzyme of lipid metabolism), UCP2 and UCP3 (mitochondrial transporters involved in thermoregulation).
# Female C57Bl6 mice were kept under a cycle of light and darkness of 12/12 hours at a constant temperature of 20±3° C. After acclimation for one week, the mice were weighed and put into groups of 6 animals selected so that the distribution of their body weight, of their plasma lipid levels and of total cholesterol determined for the first time before the experiment, is uniform. The test compounds were suspended in carboxymethylcellulose (Sigma C4888) and administered by intragastric force feeding, at a rate of once per day for 14 days at the chosen dose. The animals had free access to water and to food (standard diet). At the end of the experiment, the animals were anesthetized after fasting for 4 hours, a blood sample was taken using anticoagulant (EDTA), then the mice were weighed and euthanased. The plasma was separated by centrifugation at 3000 rev/min for 20 minutes, and the samples were stored at +4° C.
# Samples of skeletal muscle tissue were taken and frozen immediately in liquid nitrogen and then stored at −80° C. for later analyses.
# The total RNA was extracted from fragments of gastrocnemius skeletal muscle using the RNeasy® Fibrous Tissue kit (Qiagen) following the manufacturer's instructions.
# 1 μg of total RNA (quantified based on the spectrophotometer reading) was then reverse-transcribed to complementary DNA by reaction for 1 hour at 37° C. in a total volume of 30 μl containing buffer 1× (Invitrogen), 1.5 mM of DTT, 0.18 mM of dNTPs (Promega), 200 ng of pdN6 (Amersham), 30 U of RNase inhibitor (Promega) and 1 μl of MMLV-RT (Invitrogen).
# The quantitative PCR experiments were carried out using the MyiQ Single-Color Real-Time PCR Detection System (Biorad, Marnes-la-Coquette, France) and were performed using the iQ SYBR Green Supermix kit following the supplier's recommendations, in 96-well plates, on 5 μl of diluted reverse transcription reaction mixture with a hybridization temperature of 60° C. Primer pairs specific to the genes under investigation were used:
# The amount of fluorescence emitted is directly proportional to the amount of complementary DNA present at the start of the reaction and amplified during PCR. For each target investigated, a range is produced by successive dilutions of a pool constituted of a few microliters of various reverse transcription reaction mixtures. The relative expression levels of each target are thus determined using the efficacy curves obtained with the points in the range.
# The levels of expression of the genes of interest were then normalized relative to the level of expression of the reference gene 18S (whose specific primers are: […]
# The induction factor, i.e. the ratio of the relative signal (induced by the compound according to the invention) to the mean of the relative values of the control group, was then calculated for each sample. The higher this factor, the greater the gene expression activating character of the compound. The final result is represented as the mean of the induction values in each experimental group.
# [2] = tested on: MCP1 secretion in human monocytes (THP1); test: MCP1 secretion by human monocytes stimulated with PMA (ELISA); type: cell-based; details: at 1 μm, 24 h
# Method: The antiinflammatory effects of the compounds according to the invention were evaluated by measuring the secretion and expression of macrophages chemoattractant protein (MCP1) and of matrix metalloproteinase 9 (MMP9) by monocytes treated with the compounds according to the invention for 24 hours and stimulated with PMA (phorbol 12-myristate 13-acetate, which causes an inflammatory response of the cells). The more the amount of MCP1 secreted is reduced, the greater the inhibitory action of the compounds according to the invention on the inflammatory reaction. […]
# The treatment medium is recovered and the concentration of MCP1 is measured using the ELISA kit “Human MCP1 Elisa set” (BD OptEIA; 555179) following the manufacturer's recommendations.
# A human antiMCP1 monoclonal antibody is fixed on a plate, then the supernatants, containing the MCP1 secreted by the cells, are distributed. […] A third antibody, conjugated and coupled to a peroxidase enzyme, makes it possible, in the presence of substrate, to initiate an enzymatic reaction, the result of which is a coloration that is proportional to the amount of MCP1 fixed, and can be measured by spectrophotometry. […]
# The induction factor, i.e. the ratio of the signal induced by the compound according to the invention to the signal of the control group, was then calculated. […]
SMILES,expression of the gene coding for CPT1b in skeletal muscle [1],expression of the gene coding for PDK4 in skeletal muscle [1],expression of the gene coding for UCP2 in skeletal muscle [1],expression of the gene coding for UCP3 in skeletal muscle [1],secretion of MCP1 in human monocytes [2]
"CC(C)(Oc1ccc(CCC(O)c2ccc(-c3ccc(C(F)(F)F)cc3)s2)c(Cl)c1Cl)C(=O)O (stereo not shown) [Compound 4, 2-(2,3-dichloro-4-(3-hydroxy-3-(5-(4-(trifluoromethyl)phenyl)thien-2-yl)propyl)phenoxy)-2-methylpropanoic acid]",significant increase,significant increase,significant increase,significant increase,
"CC(C)(Oc1ccc(CCC(=O)c2cc(-c3ccc(C(F)(F)F)cc3)cs2)c(Cl)c1Cl)C(=O)O [Compound 11, 2-(2,3-dichloro-4-(3-oxo-3-(4-(4-(trifluoromethyl)phenyl)thien-2-yl)propyl)phenoxy)-2-methylpropanoic acid]",,,,,significant decrease
"CC(C)(Oc1ccc(CCC(OCc2ccccc2)c2ccc(-c3ccc(C(F)(F)F)cc3)s2)c(Cl)c1Cl)C(=O)O (stereo not shown) [Compound 7, 2-(4-(3-(benzyloxy)-3-(5-(4-(trifluoromethyl)phenyl)thien-2-yl)propyl)-2,3-dichlorophenoxy)-2-methylpropanoic acid]",significant increase,significant increase,significant increase,significant increase,significant decrease
